We go through 4 compounds from patent publication US20250222063A1, “TOPICAL FORMULATION FOR USE IN THE TREATMENT OR PREVENTION OF DRY ITCHY SKIN” (MC2 THERAPEUTICS LTD, priority 2022, published 2025).

Molecules are shown by their SMILES. Residues, ends and D or L forms follow the SMILES beside them.

The nature of data set [1]: Aqueous stability in HBSS buffer at 40° C. (HPLC-UV). The note with it: for aqueous stability: summary in words; for 1 month aqueous stability at 40° C. / 3 month aqueous stability at 40° C.: 3% wt/wt or 0.4% wt/wt in HBSS buffer, glass vials, HPLC-UV, in % (unit assumed). In kind it is physicochemical. As for the experimental part:
An important aspect of formulating a stable topical product. Data in Table 4 below gives 1 month and 3 month stability data at 40° C. Compounds were dissolved at 3% wt/wt or 0.4% wt/wt (if 3% was not possible) in HBSS buffer and stored in glass vials at temperature. Samples were subsequently analyzed by HPLC-UV.

The nature of data set [2]: ACD/Labs calculated Log P. The note with it: summary in words, judged from Log P. An excerpt:
It is well known in the art that compounds for a given molecular weight with more extreme Log P values are less likely to permeate the skin barrier well. Whether that be extremely hydrophilic (Log P<−2) or extremely hydrophobic (Log P>2) (16).). All of the dipeptides have a molecular weight below 400 therefore a good approximation of their relative permeation potential is their Log P. According to the ACD/Labs calculated Log P values Ala-Gln is the one of the most hydrophilc in nature with a Log P of −4.4.

Data set [3] can be described thus: Solubility (stated in words). In kind it is physicochemical. The note with it: summary in words.
The subject of data set [4] is bovine serum albumin (BSA). Description: In vitro protein carbamylation assay (14C-potassium cyanate, scintillation counting). It is filed as biochemical. The note with it: for scavenger potential: summary in words; for Degree of carbamylation (% relative to HBSS control): 10 mM nucleophile, 75 μM BSA, 25 μM 14C-Potassium Cyanate, 37° C., 72 hours, n=3. The procedure: The tests were performed as described below. 200 μL of a 0.5% BSA solution, 200 μL of test solution and 100 μL of a 5 μCi/mL 14 C-Potassium Cyanate solution was mixed in an Eppendorf tube (corresponding to a final concentration of 75 μM BSA, 25 μM 14 C-Potassium Cyanate, and 10 mM nucleophile). Samples run in triplicates (n=3). The Eppendorf tubes were incubated at 37° C. for 72 hours.
After incubation a volume of 100 μL of each sample was transferred to a new Eppendorf tube containing 100 μL of a 10% trichloroacetic acid (TCA) and kept at 4° C. overnight (for precipitation of BSA). Subsequently, the precipitated BSA was separated from the buffer by centrifugation (10000 rpm, 30 seconds). The supernatant was removed and the BSA pellet 10 was resuspended in 200 μL of a 10% solution of cold TCA (4° C.). The pellet was recovered by centrifugation (10000 rpm, 30 seconds) and supernatant was discarded. The BSA pellet was resuspended in 100 μL purified water (MilliQ) and transferred to a scintillation vial. The Eppendorf tube (previously containing the BSA pellet) was rinsed with an additional 100 μL purified water which al was transferred to the relevant scintillation vial.

Data set [5] is described as follows: Skin homogenate study (degradation half-life, LC-MS/MS). It is filed as in vitro ADME, human. Particulars: for Half life in skin homogenate: pooled human skin homogenate, 37° C., compound working solution 40 μg/mL mixed with equal volume of homogenate; for degradation: summary in words, given as in vivo. As for the experimental part: To identify which of the dipeptides was readily subject to degradation by proteases and other cell processes in the skin, a number of compounds where tested in a skin homogenate study as described below and the results are listed in table 3.
Dermatomed human skin from multiple skin donors was pooled, homogenized, and adjusted to a tissue concentration of 100 mg tissue per mL of homogenate. The homogenate was used immediately following preparation without any additional freeze/thaw cycles. Working solutions of each compound were prepared in Dulbecco's phosphate-buffered saline (DPBS) at 40 μg/mL. All solutions were pre-heated to 37° C. Equal volumes of skin homogenate and compound working solution were combined, mixed, held at 37° C., and sampled at 0, 15, 30, 60, 120, and 240 minutes. Samples were quenched with acidic acetonitrile, centrifuged, and prepared for LC-MS/MS analysis. Peak areas of each compound at each time-point were determined by LC-MS/MS.
The individual half-life of each dipeptide was determined.
The nature of the experiment should be considered indicative of the relative stability of each of the compounds rather than an absolute correlation to what would happen in vivo. The process of homogenizing the skin is likely to greatly accelerate the degradation. However, it is clear that there is substantial variation in the relative rates for each dipeptide. (See Table 3)

Consider `NCC(=O)N[C@@H](CCCN=C(N)N)C(=O)O` [Gly-Arg] (H-Gly-Arg-OH), for which the aqueous stability result in data set [1] is on record as “good”. The transdermal penetration potential entry in data set [2] was “poor”. Also, the solubility result in data set [3] is “good”. The scavenger potential result in data set [4] is “good”. In data set [5], the “Half life in skin homogenate” value was 45 min and the degradation entry is reported as “rapid”.

With `C[C@H](N)C(=O)N[C@@H](CCC(N)=O)C(=O)O` [Ala-Gln] (H-Ala-Gln-OH), in data set [1], the “1 month aqueous stability at 40° C.” value came out at 100.6, the “3 month aqueous stability at 40° C.” value is listed as 100.1 and the aqueous stability entry was “good”. Moreover, the transdermal penetration potential result in data set [2] is on record as “poor”. Besides, the solubility result in data set [3] is listed as “good”. Moreover, in data set [4], the “Degree of carbamylation (% relative to HBSS control)” value is 34.8 % relative to HBSS control and the scavenger potential result was “good”. Besides, in data set [5], the “Half life in skin homogenate” value is less than 5 min and the degradation entry was “rapid”.

Regarding `C[C@H](N)C(=O)N[C@@H](CCC(=O)O)C(=O)O` [Ala-Glu] (H-Ala-Glu-OH), in data set [1], the “1 month aqueous stability at 40° C.” value came to 99.1, the “3 month aqueous stability at 40° C.” value was 99.0 and the aqueous stability entry is on record as “good”. Further, the transdermal penetration potential entry in data set [2] is “poor”. The solubility entry in data set [3] is listed as “good”. Further, in data set [4], the “Degree of carbamylation (% relative to HBSS control)” value is recorded as 20.4 % relative to HBSS control and the scavenger potential result is recorded as “good”. In addition, in data set [5], the “Half life in skin homogenate” value was 39 min and the degradation result is “rapid”.

Take `O=C(O)[C@H](CO)NC(=O)[C@@H]1CCCN1` [Pro-Ser] (H-Pro-Ser-OH): in data set [1], the “1 month aqueous stability at 40° C.” value stood at 78.1 and the “3 month aqueous stability at 40° C.” value stood at 49.0. For the same compound, in data set [4], the “Degree of carbamylation (% relative to HBSS control)” value was 41.9 % relative to HBSS control. Further, the “Half life in skin homogenate” value in data set [5] was 284 min.
